The target of this assay is T1, recombinant human Syk (GST-hSyk fusion protein) (Homo sapiens, UniProt P43405).
T1 construct: purchased Carna Biosciences 08-176
Kind of assay: Homogeneous Time-Resolved Fluorescence (HTRF) assay for the recombinant human Syk enzyme. Type of assay: biochemical. The note with it: IC50 class; 10-dose titration, 25 μM ATP; read-out: rhSYK Activity. An outline of the steps:
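IC50 came from a four-parameter fit over ten doses, 10 μM to 0.508 nM, with HTRF read-out (Eu-anti-pTyr antibody, SA-APC, EDTA stop, 30 min). The enzyme, 5 pM GST-hSyk, met compound for 10 min, then phosphorylated 250 nM biotin-peptide with 25 μM ATP and 5 mM Mg for 45 min at room temperature, pH 7.5.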
(Time-resolved FRET reads energy transfer from a long-lived donor to a nearby acceptor.)

As to `Cc1cc(Nc2nccc(C(F)(F)F)n2)cc(-c2cc(C(F)(F)F)nn2C)c1` [Example 1.10, N-{3-methyl-5-[1-methyl-3-(trifluoromethyl)-1H-pyrazol-5-yl]phenyl}-4-(trifluoromethyl)pyrimidin-2-amine], the IC50 fell in the range of 1000 to 10000 nM. On to `Cc1cc(Nc2cc(C(F)(F)F)ccn2)nc(-c2cnn(C(=O)OC(C)(C)C)c2)c1` [Example 1.11, tert-butyl 4-(4-methyl-6-{[4-(trifluoromethyl)-pyridin-2-yl]amino}-pyridin-2-yl)-1H-pyrazole-1-carboxylate], for which the IC50 was at most 100 nM. For the molecule `Cc1cc(Nc2cc(C(F)(F)F)ccn2)nc(-c2cn[nH]c2)c1` [Example 1.12, 4-methyl-6-(1H-pyrazol-4-yl)-N-[4-(trifluoromethyl)pyridin-2-yl]pyridin-2-amine], the IC50 was at most 100 nM. With `Cc1cc(Nc2cc(C(F)(F)F)ccn2)nc(-c2cnn(C)c2)c1` [Example 1.13, 4-methyl-6-(1-methyl-1H-pyrazol-4-yl)-N-[4-(trifluoromethyl)pyridin-2-yl]pyridin-2-amine] the figure was at most 100 nM; with `Cc1cc(Nc2cc(C(F)(F)F)ccn2)nc(-c2cnn(CCC(C)C)c2)c1` [Example 1.14, 4-methyl-6-[1-(3-methylbutyl)-1H-pyrazol-4-yl]-N-[4-(trifluoromethyl)pyridin-2-yl]pyridin-2-amine], at most 100 nM; with `Cc1cc(Nc2cc(C(F)(F)F)ccn2)nc(-c2cnn3c2CCC3)c1` [Example 1.15, 6-(5,6-dihydro-4H-pyrrolo[1,2-b]pyrazol-3-yl)-4-methyl-N-[4-(trifluoromethyl)pyridin-2-yl]pyridin-2-amine], at most 100 nM.

As for `CCOC(=O)CCn1cc(-c2cc(C)cc(Nc3cc(C(F)(F)F)ccn3)n2)cn1` [Example 1.16, ethyl 3-[4-(4-methyl-6-{[4-(trifluoromethyl)pyridin-2-yl]amino}pyridin-2-yl)-1H-pyrazol-1-yl]propanoate], the IC50 was at most 100 nM. Consider `CCOC(=O)CCn1cc(-c2cc(C)cc(Nc3cc(C4CC4)ccn3)n2)cn1` [Example 1.17, ethyl 3-(4-{6-[(4-cyclopropylpyridin-2-yl)amino]-4-methylpyridin-2-yl}-1H-pyrazol-1-yl)propanoate], for which the IC50 was at most 100 nM. Turning to `Cc1ccnc(Nc2cccc(-c3cnn(CCC(=O)O)c3)n2)c1` [Example 1.18, 3-(4-{6-[(4-methylpyridin-2-yl)amino]pyridin-2-yl}-1H-pyrazol-1-yl)propanoic acid], the IC50 lay in the range of 100 to 1000 nM.

On to `O=C(O)CCn1cc(-c2cccc(Nc3cc(C(F)(F)F)ccn3)n2)cn1` [Example 1.19, 3-[4-(6-{[4-(trifluoromethyl)pyridin-2-yl]amino}pyridin-2-yl)-1H-pyrazol-1-yl]propanoic acid], for which the IC50 was at most 100 nM.

For the molecule `Cc1ccnc(Nc2cc(C)cc(-c3cnn(CCC(=O)O)c3)n2)c1` [Example 1.20, 3-(4-{4-methyl-6-[(4-methylpyridin-2-yl)amino]pyridin-2-yl}-1H-pyrazol-1-yl)propanoic acid], the IC50 lay within 100 to 1000 nM. As to `Cc1cc(Nc2cc(C(F)(F)F)ccn2)nc(-c2cnn(CCC(=O)O)c2)c1` [Example 1.21, 3-[4-(4-methyl-6-{[4-(trifluoromethyl)pyridin-2-yl]amino]pyridin-2-yl)-1H-pyrazol-1-yl)propanoic acid], the IC50 is at most 100 nM.

Turning to `Cc1cc(Nc2cc(C3CC3)ccn2)nc(-c2cnn(CCC(=O)O)c2)c1` [Example 1.22, 3-(4-{6-[(4-cyclopropylpyridin-2-yl)amino]-4-methylpyridin-2-yl}-1H-pyrazol-1-yl)propanoic acid], the IC50 is at most 100 nM. Consider `CCOC(=O)CCn1cc(-c2cccc(Nc3cc(C)ccn3)n2)cn1` [Example 1.23], for which the IC50 was in the range of 100 to 1000 nM. With `CCOC(=O)CCn1cc(-c2cccc(Nc3cc(C(F)(F)F)ccn3)n2)cn1` [Example 1.24, ethyl 3-[4-(6-{[4-(trifluoromethyl)pyridin-2-yl]amino}pyridin-2-yl)-1H-pyrazol-1-yl]propanoate], the IC50 is 100 to 1000 nM. With `CCOC(=O)CCn1cc(-c2cc(C)cc(Nc3cc(C)c(Cl)cn3)n2)cn1` [Example 1.25, ethyl 3-(4-{6-[(5-chloro-4-methylpyridin-2-yl)amino]-4-methylpyridin-2-yl}-1H-pyrazol-1-yl)propanoate], the IC50 lay in the range of 100 to 1000 nM. Take `CCOC(=O)CCn1cc(-c2cc(C)cc(Nc3cc(C)ccn3)n2)cn1` [Example 1.26, ethyl 3-(4-{4-methyl-6-[(4-methylpyridin-2-yl)amino]pyridin-2-yl}-1H-pyrazol-1-yl)propanoate]: the IC50 was in the range of 100 to 1000 nM. With `Cc1cc(Nc2cc(C)c(Cl)cn2)nc(-c2cnn(CCC(=O)O)c2)c1` [Example 1.27, 3-(4-{6-[(5-chloro-4-methylpyridin-2-yl)amino]-4-methylpyridin-2-yl}-1H-pyrazol-1-yl)propanoic acid] the figure was 100 to 1000 nM; with `Cc1cc(Nc2cc(C(F)(F)F)ccn2)nc(-c2cnn(CC3CNC(=O)O3)c2)c1` (stereo not shown) [Example 1.28, 5-{[4-(4-methyl-6-{[4-(trifluoromethyl)pyridin-2-yl]amino}pyridin-2-yl)-1H-pyrazol-1-yl]methyl}-1,3-oxazolidin-2-one], at most 100 nM; with `Cc1cc(Nc2cc(C(F)(F)F)ccn2)nc(-c2cnn(CC3CNC(=O)O3)c2)c1` (stereo not shown) [Example 1.29, 5-{[4-(4-methyl-6-{[4-(trifluoromethyl)pyridin-2-yl]amino}pyridin-2-yl)-1H-pyrazol-1-yl]methyl}-1,3-oxazolidin-2-one], at most 100 nM.

Turning to `Cc1cc(Nc2cc(C(F)(F)F)ccn2)nc(-c2cnn(CC(=O)OC(C)(C)C)c2)c1` [Example 1.30, tert-butyl [4-(4-methyl-6-{[4-(trifluoromethyl)pyridin-2-yl]amino}pyridin-2-yl)-1H-pyrazol-1-yl]acetate], the IC50 is at most 100 nM. `Cc1cc(Nc2cc(C(F)(F)F)ccn2)nc(-c2cnn(CC(=O)O)c2)c1` [Example 1.31, [4-(4-methyl-6-{[4-(trifluoromethyl)pyridin-2-yl]amino}pyridin-2-yl)-1H-pyrazol-1-yl]acetic acid]: the IC50 was at most 100 nM. For the molecule `Cc1cc(Nc2nccc(C(F)(F)F)n2)cc(-c2cn[nH]c2)n1` [Example 1.44, N-[2-methyl-6-(1H-pyrazol-4-yl)pyridin-4-yl]-4-(trifluoro-methyl)pyrimidin-2-amine], the IC50 was 100 to 1000 nM.

Take `Cc1cc(Nc2cc(C(F)(F)F)ccn2)nc(-c2ccnn2C)n1` [Example 1.45, 6-methyl-2-(1-methyl-1H-pyrazol-5-yl)-N-[4-(trifluoro-methyl)pyridin-2-yl]pyrimidin-4-amine]: the IC50 is 100 to 1000 nM. For the molecule `Cc1cc(Nc2cc(C(F)(F)F)ccn2)nc(-c2cc(C(F)(F)F)nn2C)n1` [Example 1.46, 6-methyl-2-[1-methyl-3-(trifluoromethyl)-1H-pyrazol-5-yl]-N-[4-(trifluoromethyl)pyridin-2-yl]pyrimidin-4-amine], the IC50 is 1000 to 10000 nM.

For the molecule `Cc1cc(Nc2nccc(C(C)(F)F)n2)cc(-c2cn[nH]c2)c1` [Example 1.47, 4-(1,1-difluoroethyl)-N-[3-methyl-5-(1H-pyrazol-4-yl)phenyl]pyrimidin-2-amine], the IC50 was at most 100 nM. Turning to `Cc1cc(Nc2nccc(C(F)(F)F)n2)cc(-c2cnn(C(C)c3ccc(C(=O)O)cc3)c2)c1` (stereo not shown) [Example 1.48, 4-{1-[4-(3-methyl-5-{[4-(trifluoromethyl)pyrimidin-2-yl]amino}phenyl)-1H-pyrazol-1-yl]ethyl}benzoic acid], the IC50 was at most 100 nM.

On to `Cc1cc(Nc2nccc(C(F)(F)F)n2)cc(-c2cnn(C(C)c3ccc(C(=O)O)cc3)c2)c1` (stereo not shown) [Example 1.49, 4-{1-[4-(3-methyl-5-{[4-(trifluoromethyl)pyrimidin-2-yl]amino}phenyl)-1H-pyrazol-1-yl]ethyl}benzoic acid], for which the IC50 is at most 100 nM.

`Nc1cc(Nc2nccc(C(F)(F)F)n2)cc(-c2cnn(C3CCC(C(=O)O)CC3)c2)c1` (stereo not shown) [Example 1.50, 4-[4-(3-amino-5-{[4-(trifluoromethyl)pyrimidin-2-yl]amino}phenyl)-1H-pyrazol-1-yl]cyclohexanecarboxylic acid]: the IC50 was at most 100 nM. With `Nc1cc(Nc2nccc(C(F)(F)F)n2)cc(-c2cnn(C3CCC(C(=O)O)CC3)c2)c1` (stereo not shown) [Example 1.51, 4-[4-(3-amino-5-{[4-(trifluoromethyl)pyrimidin-2-yl]amino}phenyl)-1H-pyrazol-1-yl]cyclohexanecarboxylic acid] the figure was at most 100 nM.

In the case of `CC(=O)Nc1cc(Nc2nccc(C(F)(F)F)n2)cc(-c2cnn(C3CCC(C(=O)O)CC3)c2)c1` (stereo not shown) [Example 1.52, 4-{4-[3-(acetylamino)-5-{[4-(trifluoromethyl)pyrimidin-2-yl]amino}phenyl]-1H-pyrazol-1-yl}cyclohexanecarboxylic acid], the IC50 is at most 100 nM.

Regarding `CC(=O)Nc1cc(Nc2nccc(C(F)(F)F)n2)cc(-c2cnn(C3CCC(C(=O)O)CC3)c2)c1` (stereo not shown) [Example 1.53, 4-{4-[3-(acetylamino)-5-{[4-(trifluoromethyl)pyrimidin-2-yl]amino}phenyl]-1H-pyrazol-1-yl}cyclohexanecarboxylic acid], the IC50 is at most 100 nM. `O=C(O)C1CCC(n2cc(-c3cc(Cl)cc(Nc4cc(C(F)(F)F)ccn4)n3)cn2)CC1` (stereo not shown) [Example 1.54, 4-[4-(4-chloro-6-{[4-(trifluoromethyl)pyridin-2-yl]amino}pyridin-2-yl)-1H-pyrazol-1-yl]cyclohexanecarboxylic acid]: the IC50 was at most 100 nM. As to `O=C(O)C1CCC(n2cc(-c3cc(Cl)cc(Nc4cc(C(F)(F)F)ccn4)n3)cn2)CC1` (stereo not shown) [Example 1.55, 4-[4-(4-chloro-6-{[4-(trifluoromethyl)pyridin-2-yl]amino}pyridin-2-yl)-1H-pyrazol-1-yl]cyclohexanecarboxylic acid], the IC50 is at most 100 nM.

For the origin of these results see patent US9242984B2, “Pyrazolyl derivatives as Syk inhibitors” (Merck Sharp & Dohme Corp., priority 2012, dated 2016).
